# Data: the NIST ThermoML archive (doi:10.1021/je060339m)
# Numbers after ± are expanded uncertainties.
# Conditions: Liquid
smiles,measurement,setting,value
CCOC(C)=O [ethyl acetate],mass density,"343.15 K, 15000 kPa",857.3 ± 4.9 kg/m3
same,mass density,"343.15 K, 20000 kPa",863 ± 5.5 kg/m3
same,mass density,"343.15 K, 25000 kPa",868.5 ± 6.1 kg/m3
same,mass density,"343.15 K, 30000 kPa",875.1 ± 6.7 kg/m3
same,mass density,"343.15 K, 35000 kPa",881.6 ± 7.3 kg/m3
same,mass density,"348.15 K, 100 kPa",829.4 ± 3.1 kg/m3
same,mass density,"348.15 K, 1000 kPa",830.5 ± 3.3 kg/m3
same,mass density,"348.15 K, 2000 kPa",832.3 ± 3.4 kg/m3
same,mass density,"348.15 K, 3000 kPa",833.8 ± 3.5 kg/m3
same,mass density,"348.15 K, 3800 kPa",835 ± 3.6 kg/m3
same,mass density,"348.15 K, 5000 kPa",836.8 ± 3.7 kg/m3
same,mass density,"348.15 K, 10000 kPa",845.5 ± 4.3 kg/m3
same,mass density,"348.15 K, 15000 kPa",851.8 ± 4.9 kg/m3
same,mass density,"348.15 K, 20000 kPa",857.7 ± 5.5 kg/m3
same,mass density,"348.15 K, 25000 kPa",863.5 ± 6.1 kg/m3
same,mass density,"348.15 K, 30000 kPa",870.2 ± 6.7 kg/m3
same,mass density,"348.15 K, 35000 kPa",877 ± 7.3 kg/m3
same,mass density,"353.15 K, 1000 kPa",824.3 ± 3.3 kg/m3
same,mass density,"353.15 K, 2000 kPa",826 ± 3.4 kg/m3
same,mass density,"353.15 K, 3000 kPa",827.5 ± 3.5 kg/m3
same,mass density,"353.15 K, 3800 kPa",828.8 ± 3.6 kg/m3
same,mass density,"353.15 K, 5000 kPa",830.6 ± 3.7 kg/m3
same,mass density,"353.15 K, 10000 kPa",837.7 ± 4.3 kg/m3
same,mass density,"353.15 K, 15000 kPa",844.3 ± 4.9 kg/m3
same,mass density,"353.15 K, 20000 kPa",850.4 ± 5.5 kg/m3
same,mass density,"353.15 K, 25000 kPa",856.1 ± 6.1 kg/m3
same,mass density,"353.15 K, 30000 kPa",862.7 ± 6.7 kg/m3
same,mass density,"353.15 K, 35000 kPa",869.6 ± 7.3 kg/m3
same,mass density,"358.15 K, 1000 kPa",818.4 ± 3.3 kg/m3
same,mass density,"358.15 K, 2000 kPa",820 ± 3.4 kg/m3
same,mass density,"358.15 K, 3000 kPa",821.6 ± 3.5 kg/m3
same,mass density,"358.15 K, 3800 kPa",822.8 ± 3.6 kg/m3
same,mass density,"358.15 K, 5000 kPa",824.7 ± 3.7 kg/m3
same,mass density,"358.15 K, 10000 kPa",832.1 ± 4.3 kg/m3
same,mass density,"358.15 K, 15000 kPa",838.9 ± 4.9 kg/m3
same,mass density,"358.15 K, 20000 kPa",845.2 ± 5.5 kg/m3
same,mass density,"358.15 K, 25000 kPa",851 ± 6.1 kg/m3
same,mass density,"358.15 K, 30000 kPa",857.6 ± 6.7 kg/m3
same,mass density,"358.15 K, 35000 kPa",864.7 ± 7.3 kg/m3
same,mass density,"363.15 K, 1000 kPa",811.8 ± 3.3 kg/m3
same,mass density,"363.15 K, 2000 kPa",813.5 ± 3.4 kg/m3
same,mass density,"363.15 K, 3000 kPa",815.3 ± 3.5 kg/m3
same,mass density,"363.15 K, 3800 kPa",816.6 ± 3.6 kg/m3
same,mass density,"363.15 K, 5000 kPa",818.5 ± 3.7 kg/m3
same,mass density,"363.15 K, 10000 kPa",826.3 ± 4.3 kg/m3
same,mass density,"363.15 K, 15000 kPa",833.3 ± 4.9 kg/m3
same,mass density,"363.15 K, 20000 kPa",839.7 ± 5.5 kg/m3
same,mass density,"363.15 K, 25000 kPa",845.8 ± 6.1 kg/m3
same,mass density,"363.15 K, 30000 kPa",852.9 ± 6.7 kg/m3
same,mass density,"363.15 K, 35000 kPa",860.2 ± 7.3 kg/m3
same,mass density,"368.15 K, 1000 kPa",804.9 ± 3.3 kg/m3
same,mass density,"368.15 K, 2000 kPa",806.8 ± 3.4 kg/m3
same,mass density,"368.15 K, 3000 kPa",808.6 ± 3.5 kg/m3
same,mass density,"368.15 K, 3800 kPa",810 ± 3.6 kg/m3
same,mass density,"368.15 K, 5000 kPa",812.1 ± 3.8 kg/m3
same,mass density,"368.15 K, 10000 kPa",820.2 ± 4.4 kg/m3
same,mass density,"368.15 K, 15000 kPa",827.5 ± 5 kg/m3
same,mass density,"368.15 K, 20000 kPa",834.3 ± 5.6 kg/m3
same,mass density,"368.15 K, 25000 kPa",840.6 ± 6.2 kg/m3
same,mass density,"368.15 K, 30000 kPa",848 ± 6.8 kg/m3
same,mass density,"368.15 K, 35000 kPa",855.5 ± 7.4 kg/m3
same,mass density,"373.15 K, 1000 kPa",798.5 ± 3.3 kg/m3
same,mass density,"373.15 K, 2000 kPa",800.4 ± 3.4 kg/m3
same,mass density,"373.15 K, 3000 kPa",802.4 ± 3.5 kg/m3
same,mass density,"373.15 K, 3800 kPa",803.8 ± 3.6 kg/m3
same,mass density,"373.15 K, 5000 kPa",806 ± 3.8 kg/m3
same,mass density,"373.15 K, 10000 kPa",814.4 ± 4.4 kg/m3
same,mass density,"373.15 K, 15000 kPa",822 ± 5 kg/m3
same,mass density,"373.15 K, 20000 kPa",829 ± 5.6 kg/m3
same,mass density,"373.15 K, 25000 kPa",835.5 ± 6.2 kg/m3
same,mass density,"373.15 K, 30000 kPa",843 ± 6.8 kg/m3
same,mass density,"373.15 K, 35000 kPa",850.6 ± 7.4 kg/m3
same,mass density,"378.15 K, 1000 kPa",791.8 ± 3.3 kg/m3
same,mass density,"378.15 K, 2000 kPa",793.8 ± 3.4 kg/m3
same,mass density,"378.15 K, 3000 kPa",795.8 ± 3.5 kg/m3
same,mass density,"378.15 K, 3800 kPa",797.3 ± 3.6 kg/m3
same,mass density,"378.15 K, 5000 kPa",799.6 ± 3.8 kg/m3
same,mass density,"378.15 K, 10000 kPa",808.5 ± 4.4 kg/m3
same,mass density,"378.15 K, 15000 kPa",816.5 ± 5 kg/m3
same,mass density,"378.15 K, 20000 kPa",823.7 ± 5.6 kg/m3
same,mass density,"378.15 K, 25000 kPa",830.5 ± 6.2 kg/m3
same,mass density,"378.15 K, 30000 kPa",838.4 ± 6.8 kg/m3
same,mass density,"378.15 K, 35000 kPa",846.3 ± 7.4 kg/m3
same,mass density,"383.15 K, 1000 kPa",784.8 ± 3.3 kg/m3
same,mass density,"383.15 K, 2000 kPa",787.1 ± 3.4 kg/m3
same,mass density,"383.15 K, 3000 kPa",789.1 ± 3.5 kg/m3
same,mass density,"383.15 K, 3800 kPa",790.8 ± 3.6 kg/m3
same,mass density,"383.15 K, 5000 kPa",793.2 ± 3.8 kg/m3
same,mass density,"383.15 K, 10000 kPa",802.4 ± 4.4 kg/m3
same,mass density,"383.15 K, 15000 kPa",810.7 ± 5 kg/m3
same,mass density,"383.15 K, 20000 kPa",818.2 ± 5.6 kg/m3
same,mass density,"383.15 K, 25000 kPa",825.3 ± 6.2 kg/m3
same,mass density,"383.15 K, 30000 kPa",833.5 ± 6.8 kg/m3
same,mass density,"383.15 K, 35000 kPa",841.6 ± 7.4 kg/m3
same,mass density,"388.15 K, 1000 kPa",778.2 ± 3.3 kg/m3
same,mass density,"388.15 K, 2000 kPa",780.5 ± 3.4 kg/m3
same,mass density,"388.15 K, 3000 kPa",782.7 ± 3.6 kg/m3
same,mass density,"388.15 K, 3800 kPa",784.4 ± 3.7 kg/m3
same,mass density,"388.15 K, 5000 kPa",786.9 ± 3.8 kg/m3
same,mass density,"388.15 K, 10000 kPa",796.4 ± 4.4 kg/m3
same,mass density,"388.15 K, 15000 kPa",805.1 ± 5 kg/m3
same,mass density,"388.15 K, 20000 kPa",813 ± 5.6 kg/m3
same,mass density,"388.15 K, 25000 kPa",820.3 ± 6.2 kg/m3
same,mass density,"388.15 K, 30000 kPa",828.8 ± 6.8 kg/m3
same,mass density,"388.15 K, 35000 kPa",837.2 ± 7.4 kg/m3
same,mass density,"393.15 K, 1000 kPa",771 ± 3.3 kg/m3
same,mass density,"393.15 K, 2000 kPa",773.5 ± 3.5 kg/m3
same,mass density,"393.15 K, 3000 kPa",775.9 ± 3.6 kg/m3
same,mass density,"393.15 K, 3800 kPa",777.7 ± 3.7 kg/m3
same,mass density,"393.15 K, 5000 kPa",780.4 ± 3.8 kg/m3
same,mass density,"393.15 K, 10000 kPa",790.5 ± 4.4 kg/m3
same,mass density,"393.15 K, 15000 kPa",799.4 ± 5 kg/m3
same,mass density,"393.15 K, 20000 kPa",807.6 ± 5.6 kg/m3
same,mass density,"393.15 K, 25000 kPa",815.2 ± 6.2 kg/m3
same,mass density,"393.15 K, 30000 kPa",823.9 ± 6.8 kg/m3
same,mass density,"393.15 K, 35000 kPa",832.4 ± 7.4 kg/m3
